Experiments:
Caco-2 cells = test: In vitro permeability study using Caco-2 cell; settings: Caco-2, 1 μM input, positive controls
CYP1A2 = target: T1, CYP1A2 (Homo sapiens, UniProt P05177); settings: hepatocytes
T1 sequence (P05177 1-516): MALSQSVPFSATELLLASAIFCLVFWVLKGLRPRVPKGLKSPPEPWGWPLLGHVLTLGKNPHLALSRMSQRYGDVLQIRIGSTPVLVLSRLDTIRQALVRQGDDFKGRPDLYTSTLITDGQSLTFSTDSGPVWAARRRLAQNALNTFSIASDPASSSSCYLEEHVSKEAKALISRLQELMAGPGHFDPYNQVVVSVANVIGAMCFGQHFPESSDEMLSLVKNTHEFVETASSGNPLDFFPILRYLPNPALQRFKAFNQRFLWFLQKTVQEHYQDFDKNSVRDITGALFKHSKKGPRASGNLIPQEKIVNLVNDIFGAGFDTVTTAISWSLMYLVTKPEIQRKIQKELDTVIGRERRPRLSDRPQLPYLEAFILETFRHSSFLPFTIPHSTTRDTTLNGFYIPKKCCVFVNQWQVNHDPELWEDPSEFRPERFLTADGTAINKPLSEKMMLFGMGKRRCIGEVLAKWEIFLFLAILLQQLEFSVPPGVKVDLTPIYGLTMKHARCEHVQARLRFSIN
Experimental: The samples were centrifuged at approximately 1,900 g for 10 mins before LC-MS/MS analysis.
The C YP3A4 and CYP1A2 activities in human hepatocytes were assayed by testosterone 6β-

Hepatocyte stability = assay type: in vitro ADME; settings: ICR/CD-1, hepatocytes (cryopreserved, suspension); mouse, 1 μM input, positive controls; read-out: Hepatocytes Clint, app
in vitro = settings: human, Caco-2
[1] = Brain distribution by brain slices experiment; assay type: in vitro ADME, mouse; settings: mouse brain slices, positive controls
Experimental: The unbound volume of distribution in the brain (V u, brain) was determined in fresh brain slices using the protocol published by Friden et al.[25].

[2] = Plasma binding by RED device; assay type: in vitro ADME, mouse; settings: mouse plasma, RED device, 4 h, 37 °C; also: tested at 0.4 µM
Experimental: (§1) Nonspecific binding in plasma (f u, plasma), microsomes (f u, mic) and hepatocyte (f u, hep) were determined using the method seen in supplemental information (Supplemental Methods). […]
(§2) All validation compounds were incubated at 37 °C over 4 h, and in triplicate. For […]
(§3) plasma stability, 10 mM DMSO solutions of SLM and SLOH were diluted to 40 µM (10% DMSO). Plasma […]
(§4) shaking water bath (60 oscillations/min approx.). The assay was started by addition of 6 µL aliquots to […]
(§5) the plasma (final DMSO incubation concentration 0.1%). […]
(§6) MS/MS. Natural logarithm of peak area ratios (compound peak area normalized by IS peak area) were plotted against time and half-life calculated. […]
(§7) placed into the sample chamber (indicated by the red ring) with 400 µL of PBS into the adjacent chamber.
(§8) The plate was sealed with a self-adhesive lid and incubated at 37 °C on an orbital shaker (1.5 g approx.) for 4 h. Aliquots (100 µL) were removed from each side of the insert, and analyzed after protein precipitation using 4 folds acetonitrile (ACN) containing berberine chloride as internal standard (IS) by LC-MS/MS (Analytical me thod seen below). The experimental procedure outlined in the Thermo Scientific RED device systems brochure was adopted in the present study . […]

[3] = Plasma binding by RED device; assay type: in vitro ADME, human; settings: human plasma, RED device, 4 h, 37 °C; also: tested at 0.4 µM
Experimental: as §1, §2, §3, §4, §5, §6, §7, §8

[4] = Blood cell partitioning (blood to plasma ratio); assay type: in vitro ADME; settings: fresh whole blood, 37 °C
Experimental: The blood to plasma ratio was determined using the method shown in supplemental information (Supplemental Methods). […] The blood cell partitioning was calculated as follows. […] Plasma, liver microsomes and hepatocyte binding by RED device The stability of the compounds in plasma, liver microsomes and hepatocyte were studied to ensure the reliability of the binding data. Hepatocyte was deactivated by leaving them on a bench for 2 days and going through a freeze thaw cycle thereafter.

OATP1B3 = target: T2, OATP1B3 (Homo sapiens, UniProt Q9NPD5); test: OATP substrate identification, uptake in stably transfected HEK293 cells
T2 sequence (Q9NPD5 1-702): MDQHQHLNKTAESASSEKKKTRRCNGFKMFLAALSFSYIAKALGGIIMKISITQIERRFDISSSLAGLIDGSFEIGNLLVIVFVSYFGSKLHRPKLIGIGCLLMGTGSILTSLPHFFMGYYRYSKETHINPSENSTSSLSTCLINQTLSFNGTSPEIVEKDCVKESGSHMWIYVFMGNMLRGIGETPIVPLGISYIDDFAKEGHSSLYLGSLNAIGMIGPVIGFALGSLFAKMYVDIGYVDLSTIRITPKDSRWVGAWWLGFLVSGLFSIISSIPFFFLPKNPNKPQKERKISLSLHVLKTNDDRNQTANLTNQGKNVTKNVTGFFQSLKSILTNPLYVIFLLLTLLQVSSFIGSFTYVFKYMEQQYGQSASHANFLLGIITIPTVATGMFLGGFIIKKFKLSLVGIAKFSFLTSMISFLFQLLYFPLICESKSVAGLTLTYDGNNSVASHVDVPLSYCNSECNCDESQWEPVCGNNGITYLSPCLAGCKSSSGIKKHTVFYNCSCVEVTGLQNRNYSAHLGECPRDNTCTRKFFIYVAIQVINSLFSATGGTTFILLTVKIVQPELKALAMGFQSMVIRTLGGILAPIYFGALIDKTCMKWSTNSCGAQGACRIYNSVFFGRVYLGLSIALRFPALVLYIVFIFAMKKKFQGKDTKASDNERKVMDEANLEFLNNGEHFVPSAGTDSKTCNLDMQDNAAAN
Experimental: (§9) Daily changes of medium were performed and on the second day after seeding using medium containing 10 mM sodium butyrate.
(§10) Stably transfected HEK cells and control vector-transfected HEK293 cells were first washed (3 × 1 mL) with prewarmed HBSS (pH 7.4) and then were incubated with 250 μL of HBSS containing compounds at concentrations of 1 and 10 μM. Cells were incubated for 10 mins at 37 °C for all experiments. After incubation, uptake was stopped by aspirating the incubation solution and washing each well 3 times with 200 μL of ice-old HBSS. The cells were lysed in 150 μL of 1 M NaOH for 30 mins, and then neutralized by adding equal volumes of 1 M HCl.
(§11) The following equations (3 and 4) were used to calculate the uptake rates (U, pmol/mg/min) and the OATP1B1, OATP1B3, OATP2B1 and OATP1A2 uptake ratio (UR):3 U=Clysate/P×T 4 UR=UOATP1B1/1B3/2B1/1A2/UHEK293−MOCK where C lysate is the compound concentration in cell lysates. P is the protein concentration in cell lysates. T is the incubation time. U OATP1B1/1B3/2B1/1A2 is the uptake rate obtained in HEK293 stably transfected OATP1B1, OATP1B3, OATP2B1 or OATP1A2 transportation. U HEK293-MOCK is the uptake rate obtained in control vector-transfected HEK293 transportation.

OATP1B1 = target: T3, OATP1B1 (Homo sapiens, UniProt Q9Y6L6); test: as above
T3 sequence (Q9Y6L6 1-691): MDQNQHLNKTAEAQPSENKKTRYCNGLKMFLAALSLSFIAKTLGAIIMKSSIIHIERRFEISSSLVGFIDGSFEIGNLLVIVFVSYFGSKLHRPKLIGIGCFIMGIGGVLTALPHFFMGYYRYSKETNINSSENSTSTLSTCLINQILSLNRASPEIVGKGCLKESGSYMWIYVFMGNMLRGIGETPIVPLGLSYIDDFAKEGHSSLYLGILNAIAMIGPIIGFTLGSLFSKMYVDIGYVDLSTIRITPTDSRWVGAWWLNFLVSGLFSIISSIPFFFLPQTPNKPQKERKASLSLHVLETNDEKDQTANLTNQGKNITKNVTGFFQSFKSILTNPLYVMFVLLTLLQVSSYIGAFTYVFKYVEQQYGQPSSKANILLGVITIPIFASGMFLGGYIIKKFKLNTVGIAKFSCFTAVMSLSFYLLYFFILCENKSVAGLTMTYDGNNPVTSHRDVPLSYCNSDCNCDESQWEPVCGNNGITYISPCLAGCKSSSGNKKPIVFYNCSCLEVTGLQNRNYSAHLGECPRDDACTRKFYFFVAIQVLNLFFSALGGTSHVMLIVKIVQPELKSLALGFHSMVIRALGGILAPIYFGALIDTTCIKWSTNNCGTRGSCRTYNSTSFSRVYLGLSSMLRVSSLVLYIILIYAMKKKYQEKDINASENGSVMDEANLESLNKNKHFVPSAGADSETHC
Experimental: as §9, §10, §11

OATP1A2 = target: T4, OATP1A2 (Homo sapiens, UniProt P46721); test: as above
T4 sequence (P46721 1-670): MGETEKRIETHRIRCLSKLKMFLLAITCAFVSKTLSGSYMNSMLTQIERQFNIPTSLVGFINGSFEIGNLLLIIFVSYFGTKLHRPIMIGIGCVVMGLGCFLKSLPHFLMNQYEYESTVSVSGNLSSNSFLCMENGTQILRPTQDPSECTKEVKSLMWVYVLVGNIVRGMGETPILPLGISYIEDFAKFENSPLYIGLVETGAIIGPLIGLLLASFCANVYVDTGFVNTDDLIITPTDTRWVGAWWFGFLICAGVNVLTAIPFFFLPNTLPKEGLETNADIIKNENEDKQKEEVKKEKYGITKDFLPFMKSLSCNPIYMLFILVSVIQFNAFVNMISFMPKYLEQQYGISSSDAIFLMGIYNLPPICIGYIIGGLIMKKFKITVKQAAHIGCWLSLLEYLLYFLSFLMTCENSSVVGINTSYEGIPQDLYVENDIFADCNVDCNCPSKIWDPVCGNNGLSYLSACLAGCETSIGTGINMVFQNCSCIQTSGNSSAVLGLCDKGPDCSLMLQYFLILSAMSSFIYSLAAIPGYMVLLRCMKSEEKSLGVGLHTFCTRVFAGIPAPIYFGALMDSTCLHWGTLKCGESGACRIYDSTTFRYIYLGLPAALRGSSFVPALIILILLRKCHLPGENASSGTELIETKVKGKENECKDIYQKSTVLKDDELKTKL
Experimental: as §9, §10, §11

OATP2B1 = target: T5, OATP2B1 (Homo sapiens, UniProt O94956); test: as above; settings: positive control
T5 sequence (O94956 1-709): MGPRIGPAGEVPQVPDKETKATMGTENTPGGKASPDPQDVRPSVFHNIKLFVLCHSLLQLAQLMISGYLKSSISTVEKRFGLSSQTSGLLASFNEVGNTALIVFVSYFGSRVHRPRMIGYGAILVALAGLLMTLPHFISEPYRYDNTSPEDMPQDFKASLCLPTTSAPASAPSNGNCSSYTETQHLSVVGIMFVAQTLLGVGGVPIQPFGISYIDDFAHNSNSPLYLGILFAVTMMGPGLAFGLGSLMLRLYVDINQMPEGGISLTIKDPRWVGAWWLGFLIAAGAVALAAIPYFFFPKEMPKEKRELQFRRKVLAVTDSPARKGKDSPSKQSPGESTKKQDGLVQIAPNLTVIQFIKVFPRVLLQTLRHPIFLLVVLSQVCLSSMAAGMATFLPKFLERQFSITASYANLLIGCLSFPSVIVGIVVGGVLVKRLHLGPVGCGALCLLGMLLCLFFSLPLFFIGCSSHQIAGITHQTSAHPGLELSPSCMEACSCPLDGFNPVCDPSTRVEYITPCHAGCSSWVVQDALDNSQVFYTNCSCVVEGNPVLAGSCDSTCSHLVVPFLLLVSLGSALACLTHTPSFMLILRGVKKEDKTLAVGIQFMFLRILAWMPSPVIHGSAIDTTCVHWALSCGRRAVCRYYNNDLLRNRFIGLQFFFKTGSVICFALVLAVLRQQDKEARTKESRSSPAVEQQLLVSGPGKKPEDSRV
Experimental: as §9, §10, §11

With O=C([O-])c1ccccc1-c1c2ccc(=O)cc-2oc2cc([O-])ccc12.[Na+].[Na+] [Sodium fluorescein] the “Papp (A-B)” value (Caco-2 cells) was 1.40 ± 0.260 (cm/s) × 10-6.
With CCOc1ccc(NC(C)=O)cc1 [Phenacetin, reference compound] the “phenacetin O-deethylation (CYP1A2 activity)” value (CYP1A2) was 24.3 ± 3.25 pmol/min/106 cells and the hepatocyte CLint at 1 μM (Hepatocyte stability) was 33 ± 8 µL/min/1e6 cells.
Work on C[C@H]1O[C@@H](O[C@H]2[C@@H](O)C[C@H](O[C@H]3[C@@H](O)C[C@H](O[C@H]4CC[C@@]5(C)[C@H](CC[C@@H]6[C@@H]5C[C@@H](O)[C@]5(C)[C@@H](C7=CC(=O)OC7)CC[C@]65O)C4)O[C@@H]3C)O[C@@H]2C)C[C@H](O)[C@@H]1O [Digoxin] yielded a Papp A→B at 2 μM (in vitro) of 3.5 ± 0.34 ×10⁻⁶ cm/s and an efflux ratio at 2 μM (in vitro) of 5 ± 1.5.
For CC[C@@]1(O)C(=O)OCc2c1cc1n(c2=O)Cc2cc3c(CN(C)C)c(O)ccc3nc2-1 [Topotecan], the Papp A→B at 2 μM (in vitro) was 1.2 ± 0.09 ×10⁻⁶ cm/s and the efflux ratio at 2 μM (in vitro) was 4.6 ± 1.7.
In the case of NCC1(CC(=O)O)CCCCC1 [Gabapentin, reference compound], the “Unbound brain distribution (Vu, brain)” value [1] is reported as 2.20 ± 1.00 mL/g brain.
With CC(C)NCC(O)COc1cccc2ccccc12 (stereo not drawn) [Propranolol, reference compound] the “f u,plasma %” value [2] was 0.220 ± 0.0200%, the Papp A→B at 1 μM (in vitro) was 17 ± 1.3 ×10⁻⁶ cm/s and the “f u,plasma %” value [3] was 6.50 ± 0.480%.
With NS(=O)(=O)c1cc(C2(O)NC(=O)c3ccccc32)ccc1Cl (stereo not drawn) [Chlorthalidone, reference compound] the blood plasma ratio at 1 h, 1 μM ([4]; human) was 11 ± 3.2 and the blood plasma ratio at 1 h, 1 μM ([4]; mouse) was 6.2 ± 0.2.
For C[C@]12CC[C@@H]3c4ccc(O)cc4CC[C@H]3[C@@H]1CC[C@@H]2O[C@@H]1O[C@H](C(=O)O)[C@@H](O)[C@H](O)[C@H]1O [β-Estradiol 17-β-D-glucuronide, reference compound], the “uptake ratio of OATP1B3” value (OATP1B3) was 10 ± 3.0 and the “uptake ratio of OATP1B1” value (OATP1B1) was 45 ± 7.6.
With C[C@]12CC[C@@H]3c4ccc(OS(=O)(=O)O)cc4CC[C@H]3[C@@H]1CCC2=O [estrone-3-sulfate, reference compound] the “uptake ratio of OATP1A2” value (OATP1A2) was 18 ± 3.7 and the “uptake ratio of OATP2B1” value (OATP2B1) was 13 ± 2.9.
In the case of COC(=O)c1ccccc1-c1c2ccc(=N)cc-2oc2cc(N)ccc12 [Rhodamine 123], the Papp A→B at 1 μM (in vitro) is reported as 0.73 ± 0.02 ×10⁻⁶ cm/s.

— paper PMC5703966, “Systemic clearance and brain distribution of carbazole-based cyanine compounds as Alzheimer’s disease drug candidates” (Scientific Reports, 2017)
